The subject of the series is Wnt/beta-catenin pathway in COLO320DM tumors. The series can be described thus: Tumor RNA-sequencing and GSEA in COLO320DM tumors. It counts as in vivo, mice. The note with it: 48-hr post-dose, i.p. 30 mg/kg. From the text:
It is noted that both negatively and positively enriched gene sets were observed. Among other things, the present disclosure provides technologies for assessing efficacy of a method, e.g., a treatment, comprising assessing expression of one or more negatively and/or positively enriched genes. In some embodiments, if expression profiles of one or more genes are negatively and/or positively enriched as identified herein, a method may be considered to have efficacy, and/or administration (e.g., of provided technologies such as stapled peptides, compositions, etc.) to a subject can continue. […]
RNAseq Data Analysis. In some embodiments, sequence reads were trimmed to remove possible adapter sequences and nucleotides with poor quality using Trimmomatic v.0.39. The trimmed reads were mapped to the Homo sapiens GRCh38 reference genome available on ENSEMBL using the STAR aligner v.2.7.7a. For grafted tumor samples, host reads were removed with XenofilteR. Unique gene hit counts were calculated by using featureCounts from the R Subread package v.2.4.2. Read filtering, normalization, and differentially expression analysis was performed with the edgeR package v.4.0.2 in R. Genes with an adjusted p-value <0.01 and absolute log 2 fold change >1 were called as differentially expressed genes for each comparison. […]
RNAseq Preparation. […] On average over 60 million 2×150 base pair reads were produced per sample. […]

In turn, “Ac-PL3-Glu-Npg-B5-Glu-3COOHF-Aib-Ala-Phe-Lys*3-PyrS2-3Thi-BztA-GlnR*3-Ala-NH2 [I-470]” registered a concentration in tumors of 5181 ng/gram.
